For data set [1] the following is noted: exposure to humidity, cited from earlier work.
The conditions of data set [2]: for Related Substances: Chlorothiamine (Impurity C) / Related Substances: Thiamine sulfate ester (Impurity A) / Related Substances: Desmethylthiamine (Impurity B) / Related Substances: Total Impurities: EP 8.6 HPLC Method; for Related Substances: Chlorothiamine (Impurity C) / Related Substances: Thiamine sulfate ester (Impurity A): limit NMT 0.15%; for Related Substances: Desmethylthiamine (Impurity B): limit NMT 0.3%; for Related Substances: Total Impurities: limit NMT 0.5%; for Assay: limit 98.0%-102.0%; for Sulfates: limit EP 8.6 NMT 300 ppm; for Solution S: limit EP 8.6 Practically Clear and Odorless; for Heavy Metals / Appearance: limit Meets EP 8.6; for ID: Chloride / ID: FTIR / Limit of Nitrate: limit Meets USP 39; for Absorbance of Solution: limit USP 39 NMT 0.025 Abs; for Residue on Ignition: limit USP 39 NMT 0.2%; for Water: limit USP 39 NMT 5.0%; for pH: limit USP 39 pH 2.7-3.4.

The conditions of data set [3]: cited from earlier work.
Setting [4] is: 36 Months, listed as T111116, hydrochloride monohydrate.
Where [5] appears, read: 36 Months, listed as T111201, hydrochloride monohydrate.
Where [6] appears, read: 36 Months, listed as T111202, hydrochloride monohydrate.
[7] abbreviates: Time 0, listed as T111116, hydrochloride monohydrate.
Setting [8] is: Time 0, listed as T111201, hydrochloride monohydrate.
[9] abbreviates: Time 0, listed as T111202, hydrochloride monohydrate.

The source of these data is US9663507B1, “Crystallisation of thiamine hydrochloride” (Topchem Pharmaceuticals Limited, priority 2016, dated 2017).

Molecules are shown by their SMILES. Where a name gives a salt, the structure may show the parent alone. Read-outs that look alike come from different tables or passages of the source.

Turning to `Cc1ncc(C[n+]2csc(CCO)c2C)c(N)n1` [Example 1, Thiamine Hydrochloride Hemihydrate], the Hygroscopicity entry in data set [1] (Hydrochloride Hemihydrate) was “less hygroscopic”.
With `Cc1ncc(C[n+]2csc(CCO)c2C)c(N)n1` [Thiamine hydrochloride monohydrate], in data set [2] (36 Months), the “Related Substances: Chlorothiamine (Impurity C)” value is listed as less than 0.05%, the “Related Substances: Thiamine sulfate ester (Impurity A)” value (“Related Substances … (Impurity A)” for short) was 0.07%, the Sulfates result is recorded as “Complies” and the “Solution S” value is recorded as “Complies”. For the same compound, in data set [2] (36 Months), the “Heavy Metals” value is listed as “Complies”, the “ID: Chloride” value is on record as “Complies”, the “ID: FTIR” value is recorded as “Complies” and the “Limit of Nitrate” value is “Complies”. Also, in data set [2] (36 Months), the “Residue on Ignition” value worked out at 0.0%. Besides, in data set [2] (setting [4]), the “Related Substances: Desmethylthiamine (Impurity B)” value (shortened to “Related Substances … (Impurity B)”) was 0.07%, the “Related Substances: Total Impurities” value was 0.13%, the Assay came out at 99.8% and the “Absorbance of Solution” value came out at 0.004 Abs. In data set [2] (setting [4]), the Water is given as 3.7% and the pH entry is “pH 2.9”. In data set [2] (setting [5]), the “Related Substances … (Impurity B)” value worked out at 0.07%, the “Related Substances: Total Impurities” value was 0.14%, the Assay was 99.6% and the “Absorbance of Solution” value was 0.013 Abs. Further, in data set [2] (setting [5]), the Water is reported as 2.7% and the pH entry was “pH 3.0”. Moreover, in data set [2] (setting [6]), the “Related Substances … (Impurity B)” value was found to be 0.06%, the “Related Substances: Total Impurities” value came to 0.13%, the Assay stood at 99.1% and the “Absorbance of Solution” value was 0.007 Abs. Also, in data set [2] (setting [6]), the Water came out at 4.0% and the pH entry is on record as “pH 3.1”. Further, the Appearance entry in data set [2] (36 Months, sealed foil lined polypropylene bags) was “Complies”. In addition, in data set [2] (Time 0), the “Related Substances: Chlorothiamine (Impurity C)” value was less than 0.05%, the Sulfates entry is “Complies”, the “Solution S” value is listed as “Complies” and the Appearance result is listed as “Complies”. In addition, in data set [2] (Time 0), the “Heavy Metals” value was “Complies”, the “ID: Chloride” value is given as “Complies”, the “ID: FTIR” value is “Complies” and the “Limit of Nitrate” value is “Complies”. Besides, in data set [2] (Time 0), the “Residue on Ignition” value is 0.0%. In data set [2] (setting [7]), the “Related Substances … (Impurity A)” value is listed as less than 0.05%, the “Related Substances … (Impurity B)” value was less than 0.05%, the “Related Substances: Total Impurities” value is “Complies” and the Assay came out at 99.0%. For the same compound, in data set [2] (setting [7]), the “Absorbance of Solution” value amounted to 0.005 Abs, the Water amounted to 3.2% and the pH entry is “pH 3.3”. Also, in data set [2] (setting [8]), the “Related Substances … (Impurity A)” value was determined as 0.07%, the “Related Substances … (Impurity B)” value was found to be 0.07%, the “Related Substances: Total Impurities” value was found to be 0.4% and the Assay stood at 98.6%. Besides, in data set [2] (setting [8]), the “Absorbance of Solution” value turned out to be 0.008 Abs, the Water worked out at 2.0% and the pH result is given as “pH 3.2”. In data set [2] (setting [9]), the “Related Substances … (Impurity A)” value is 0.06%, the “Related Substances … (Impurity B)” value came to 0.06%, the “Related Substances: Total Impurities” value turned out to be 0.12% and the Assay is 99.2%. In addition, in data set [2] (setting [9]), the Water turned out to be 3.3% and the pH result was “pH 3.2”. Moreover, the “Absorbance of Solution” value in data set [2] (Time 0, unit printed as %) is 0.007%. Also, the Storage stability entry in data set [2] (protected from moisture, […], USP or EP testing) was “stability up to three years”. Moreover, the Hygroscopicity entry in data set [1] (hydrochloride monohydrate) is on record as “hygroscopic”.
As to `Cc1ncc(C[n+]2csc(CCO)c2C)c(N)n1` [Thiamine hydrochloride], the Solubility in water entry in data set [3] is “high solubility in water”.
Turning to `Cc1ncc(C[n+]2csc(CCO)c2C)c(N)n1` [anhydrous form, Thiamine hydrochloride], the Hygroscopicity entry in data set [1] (hydrochloride) is “readily absorbs moisture to form the monohydrate and hemihydrate”.
